# In PubChem BioAssay (NCI):
#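 Abbreviation: GI50, concentration required for 50% inhibition of growth. TGI denotes the concentration required for complete inhibition of growth.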
# Key:
# Assay in all cases: DTP human tumour cell line panel, 384-well format
# 786-0 renal = test system: 786-0 renal
# MDA-MB-468 breast = test system: MDA-MB-468 breast
# HCT-15 colon = test system: HCT-15 colon
# A498 renal = test system: A498 renal
# NCI-H322M lung = test system: NCI-H322M lung
# SK-MEL-5 melanoma = test system: SK-MEL-5 melanoma
# HOP-62 NSCLC = test system: HOP-62 NSCLC
# U251 glioblastoma = test system: U251 glioblastoma
# SK-OV-3 ovarian = test system: SK-OV-3 ovarian
# SW-620 colon = test system: SW-620 colon
# OVCAR-4 ovarian = test system: OVCAR-4 ovarian
# ACHN renal = test system: ACHN renal
# IGROV1 ovarian = test system: IGROV1 ovarian
# MDA-MB-435 melanoma = test system: MDA-MB-435 melanoma
# KM12 colon = test system: KM12 colon
# TK-10 renal = test system: TK-10 renal
# HL-60(TB) leukemia = test system: HL-60(TB) leukemia
# T-47D breast = test system: T-47D breast
# CCRF-CEM leukemia = test system: CCRF-CEM leukemia
# LOX IMVI melanoma = test system: LOX IMVI melanoma
# MDA-MB-231 breast = test system: MDA-MB-231 breast
# OVCAR-8 ovarian = test system: OVCAR-8 ovarian
# SNB-19 CNS = test system: SNB-19 CNS
# SF-295 CNS = test system: SF-295 CNS
# HOP-92 NSCLC = test system: HOP-92 NSCLC
# HS 578T breast = test system: HS 578T breast
# A549 NSCLC = test system: A549 NSCLC
# UACC-257 melanoma = test system: UACC-257 melanoma
# SNB-75 CNS = test system: SNB-75 CNS
# PC-3 prostate = test system: PC-3 prostate
# EKVX NSCLC = test system: EKVX NSCLC
# NCI-H460 NSCLC = test system: NCI-H460 NSCLC
# NCI/ADR-RES ovarian = test system: NCI/ADR-RES ovarian
# MCF7 breast = test system: MCF7 breast
# HCC-2998 colon = test system: HCC-2998 colon
# UACC-62 melanoma = test system: UACC-62 melanoma
# MALME-3M melanoma = test system: MALME-3M melanoma
# SF-539 CNS = test system: SF-539 CNS
# UO-31 renal = test system: UO-31 renal
# RXF 393 renal = test system: RXF 393 renal
# OVCAR-3 ovarian = test system: OVCAR-3 ovarian
# COLO 205 colon = test system: COLO 205 colon
# SK-MEL-28 melanoma = test system: SK-MEL-28 melanoma
# RPMI-8226 leukemia = test system: RPMI-8226 leukemia
# SR leukemia = test system: SR leukemia
# NCI-H226 lung = test system: NCI-H226 lung
# HCT-116 colon = test system: HCT-116 colon
# K-562 leukemia = test system: K-562 leukemia
# HT29 colon = test system: HT29 colon
# NCI-H23 lung = test system: NCI-H23 lung
# SF-268 CNS = test system: SF-268 CNS
# DU-145 prostate = test system: DU-145 prostate
# CAKI-1 renal = test system: CAKI-1 renal
# NCI-H522 lung = test system: NCI-H522 lung
# SN12C renal = test system: SN12C renal
# M14 melanoma = test system: M14 melanoma
# MOLT-4 leukemia = test system: MOLT-4 leukemia
# BT-549 breast = test system: BT-549 breast
compound,measurement,setting,value
NC1CCC(N[C@@H]2C[C@H]2c2ccccc2)CC1 (stereo partly specified),GI50,786-0 renal,33.4 µM
same,TGI,786-0 renal,> 100 µM
same,GI50,MDA-MB-468 breast,58.9 µM
same,TGI,MDA-MB-468 breast,> 100 µM
same,GI50,HCT-15 colon,34.1 µM
same,TGI,HCT-15 colon,> 100 µM
same,GI50,A498 renal,28.3 µM
same,TGI,A498 renal,> 100 µM
same,GI50,NCI-H322M lung,86.4 µM
same,TGI,NCI-H322M lung,> 100 µM
same,GI50,SK-MEL-5 melanoma,41.4 µM
same,TGI,SK-MEL-5 melanoma,> 100 µM
same,GI50,HOP-62 NSCLC,66.9 µM
same,TGI,HOP-62 NSCLC,> 100 µM
same,GI50,U251 glioblastoma,44.4 µM
same,TGI,U251 glioblastoma,> 100 µM
same,GI50,SK-OV-3 ovarian,> 100 µM
same,TGI,SK-OV-3 ovarian,> 100 µM
same,GI50,SW-620 colon,> 100 µM
same,TGI,SW-620 colon,> 100 µM
same,GI50,OVCAR-4 ovarian,> 100 µM
same,TGI,OVCAR-4 ovarian,> 100 µM
same,GI50,ACHN renal,> 100 µM
same,TGI,ACHN renal,> 100 µM
same,GI50,IGROV1 ovarian,48.8 µM
same,TGI,IGROV1 ovarian,> 100 µM
same,GI50,MDA-MB-435 melanoma,38.1 µM
same,TGI,MDA-MB-435 melanoma,> 100 µM
same,GI50,KM12 colon,61.9 µM
same,TGI,KM12 colon,> 100 µM
same,GI50,TK-10 renal,> 100 µM
same,TGI,TK-10 renal,> 100 µM
same,GI50,HL-60(TB) leukemia,10.2 µM
same,TGI,HL-60(TB) leukemia,28.9 µM
same,GI50,T-47D breast,> 100 µM
same,TGI,T-47D breast,> 100 µM
same,GI50,CCRF-CEM leukemia,31.5 µM
same,TGI,CCRF-CEM leukemia,> 100 µM
same,GI50,LOX IMVI melanoma,36.2 µM
same,TGI,LOX IMVI melanoma,> 100 µM
same,GI50,MDA-MB-231 breast,90.5 µM
same,TGI,MDA-MB-231 breast,> 100 µM
same,GI50,OVCAR-8 ovarian,49.4 µM
same,TGI,OVCAR-8 ovarian,> 100 µM
same,GI50,SNB-19 CNS,> 100 µM
same,TGI,SNB-19 CNS,> 100 µM
same,GI50,SF-295 CNS,> 100 µM
same,TGI,SF-295 CNS,> 100 µM
same,GI50,HOP-92 NSCLC,35.9 µM
same,TGI,HOP-92 NSCLC,> 100 µM
same,GI50,HS 578T breast,37.5 µM
same,TGI,HS 578T breast,> 100 µM
same,GI50,A549 NSCLC,> 100 µM
same,TGI,A549 NSCLC,> 100 µM
same,GI50,UACC-257 melanoma,17.5 µM
same,TGI,UACC-257 melanoma,33.1 µM
same,GI50,SNB-75 CNS,> 100 µM
same,TGI,SNB-75 CNS,> 100 µM
same,GI50,PC-3 prostate,64.7 µM
same,TGI,PC-3 prostate,> 100 µM
same,GI50,EKVX NSCLC,40.2 µM
same,TGI,EKVX NSCLC,> 100 µM
same,GI50,NCI-H460 NSCLC,77 µM
same,TGI,NCI-H460 NSCLC,> 100 µM
same,GI50,NCI/ADR-RES ovarian,> 100 µM
same,TGI,NCI/ADR-RES ovarian,> 100 µM
same,GI50,MCF7 breast,> 100 µM
same,TGI,MCF7 breast,> 100 µM
same,GI50,HCC-2998 colon,40.1 µM
same,TGI,HCC-2998 colon,> 100 µM
same,GI50,UACC-62 melanoma,19.4 µM
same,TGI,UACC-62 melanoma,38.2 µM
same,GI50,MALME-3M melanoma,21 µM
same,TGI,MALME-3M melanoma,47.3 µM
same,GI50,SF-539 CNS,23.4 µM
same,TGI,SF-539 CNS,64.1 µM
same,GI50,UO-31 renal,32.5 µM
same,TGI,UO-31 renal,> 100 µM
same,GI50,RXF 393 renal,32.1 µM
same,TGI,RXF 393 renal,> 100 µM
same,GI50,OVCAR-3 ovarian,25 µM
same,TGI,OVCAR-3 ovarian,> 100 µM
same,GI50,COLO 205 colon,66.7 µM
same,TGI,COLO 205 colon,> 100 µM
same,GI50,SK-MEL-28 melanoma,32.2 µM
same,TGI,SK-MEL-28 melanoma,> 100 µM
same,GI50,RPMI-8226 leukemia,41.5 µM
same,TGI,RPMI-8226 leukemia,> 100 µM
same,GI50,SR leukemia,6.76 µM
same,TGI,SR leukemia,18.6 µM
same,GI50,NCI-H226 lung,> 100 µM
same,TGI,NCI-H226 lung,> 100 µM
same,GI50,HCT-116 colon,41.6 µM
same,TGI,HCT-116 colon,> 100 µM
same,GI50,K-562 leukemia,31.4 µM
same,TGI,K-562 leukemia,> 100 µM
same,GI50,HT29 colon,20 µM
same,TGI,HT29 colon,43.7 µM
same,GI50,NCI-H23 lung,71.2 µM
same,TGI,NCI-H23 lung,> 100 µM
same,GI50,SF-268 CNS,76.2 µM
same,TGI,SF-268 CNS,> 100 µM
same,GI50,DU-145 prostate,87.1 µM
same,TGI,DU-145 prostate,> 100 µM
same,GI50,CAKI-1 renal,35.2 µM
same,TGI,CAKI-1 renal,> 100 µM
same,GI50,NCI-H522 lung,94.1 µM
same,TGI,NCI-H522 lung,> 100 µM
same,GI50,SN12C renal,> 100 µM
same,TGI,SN12C renal,> 100 µM
same,GI50,M14 melanoma,20.9 µM
same,TGI,M14 melanoma,40.2 µM
same,GI50,MOLT-4 leukemia,24 µM
same,TGI,MOLT-4 leukemia,77.8 µM
same,GI50,BT-549 breast,46.2 µM
same,TGI,BT-549 breast,> 100 µM
